The assay concerns NCI-H196 complex spheroids with HUVEC/MSC, growth % T/C. Nature of the assay: Anticancer human tumor NCI-H196 cell line growth inhibition [Asc].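 As to all read-outs here: spheroids exposed to compound for 7 days before measurement.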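 As to viability, T/C: 100% = DMSO vehicle control wells.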 The following applies: for viability, T/C: stronger effect = lower value. The gist of the method:
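Spheroid model: tumor line + HUVEC + hMSC. Single agents and combinations; top conc. at/near clinical Cmax (10 microM if undetermined), half-log dilutions. DMSO stocks at 800-fold test concentration.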

The mark [1] stands for this setting: curve of first compound, second compound 0.01 µM.
Where [2] appears, read: curve of first compound, second compound 0.0316 µM.
Setting [3] is: curve of first compound, second compound 0.1 µM.
Where [4] appears, read: curve of first compound, second compound 0.316 µM.
[5] abbreviates: curve of first compound, second compound 1 µM.
Where [6] appears, read: second compound 0.01 µM, first compound 0.00316 µM.
The mark [7] stands for this setting: second compound 0.01 µM, first compound 0.01 µM.
Where [8] appears, read: second compound 0.01 µM, first compound 0.0316 µM.
Setting [9] is: second compound 0.01 µM, first compound 0.1 µM.
Setting [10] is: second compound 0.0316 µM, first compound 0.00316 µM.
The mark [11] stands for this setting: second compound 0.0316 µM, first compound 0.01 µM.
Where [12] appears, read: second compound 0.0316 µM, first compound 0.0316 µM.
[13] abbreviates: second compound 0.0316 µM, first compound 0.1 µM.
The mark [14] stands for this setting: second compound 0.1 µM, first compound 0.00316 µM.
Where [15] appears, read: second compound 0.1 µM, first compound 0.01 µM.
Setting [16] is: second compound 0.1 µM, first compound 0.0316 µM.
Where [17] appears, read: second compound 0.1 µM, first compound 0.1 µM.
The mark [18] stands for this setting: second compound 0.316 µM, first compound 0.00316 µM.
Setting [19] is: second compound 0.316 µM, first compound 0.01 µM.
Setting [20] is: second compound 0.316 µM, first compound 0.0316 µM.
[21] abbreviates: second compound 0.316 µM, first compound 0.1 µM.
[22] abbreviates: second compound 1 µM, first compound 0.00316 µM.
The mark [23] stands for this setting: second compound 1 µM, first compound 0.01 µM.
Where [24] appears, read: second compound 1 µM, first compound 0.0316 µM.
Where [25] appears, read: second compound 1 µM, first compound 0.1 µM.
Where [26] appears, read: second compound 0.1 µM, first compound 0.000316 µM.
Setting [27] is: second compound 0.1 µM, first compound 0.001 µM.
Setting [28] is: second compound 0.316 µM, first compound 0.000316 µM.
The mark [29] stands for this setting: second compound 0.316 µM, first compound 0.001 µM.
[30] abbreviates: second compound 1 µM, first compound 0.000316 µM.
Setting [31] is: second compound 1 µM, first compound 0.001 µM.

For six molecules, IC50 and viability, T/C results are on record in PubChem BioAssay AID1963439 (Molecular Pharmacology Branch, DTP, NCI, 2024).

“And” between values parts separate entries of the source, which are not always exact repeats. Equal entries are not always repeated. Some results are limits rather than exact numbers.

For `COc1c(OCCCN2CCOCC2)ccc2c3n(c(=NC(=O)c4cnc(N)nc4)nc12)CCN3` + CNC(C)C(=O)NC1CN(S(=O)(=O)c2cccc(S(=O)(=O)N3CCC4CCC(C(=O)NC(c5ccccc5)c5ccccc5)N4C(=O)C(NC(=O)C(C)NC)C3)c2)CCC2CCC(C(=O)NC(c3ccccc3)c3ccccc3)N2C1=O, the IC50 (in general, the point on the concentration scale where inhibition reaches its midpoint) is less than 3.16 nM under setting [1]; less than 3.16 nM under setting [2]; less than 3.16 nM under setting [3]; less than 3.16 nM under setting [4]; less than 3.16 nM under setting [5]. Moreover, the viability, T/C (in general, the ratio of treated to control) is, setting by setting: under setting [6], 5.54%; under setting [7], 4.98%; under setting [8], 5.78%; under setting [9], 6.94%; (second compound 0.01 µM, first compound 0.316 µM) 10.4%; (second compound 0.01 µM, first compound 1 µM) 12.5%. Moreover, the viability, T/C is, setting by setting: under setting [10], 4.98%; under setting [11], 5.47%; under setting [12], 4.38%; under setting [13], 4.6%; (second compound 0.0316 µM, first compound 0.316 µM) 5.64%; (second compound 0.0316 µM, first compound 1 µM) 9.69%. The viability, T/C runs as follows: under setting [14], 2.54%; under setting [15], 3.24%; under setting [16], 3.31%; under setting [17], 2.53%; (second compound 0.1 µM, first compound 0.316 µM) 5.11%; (second compound 0.1 µM, first compound 1 µM) 4.24%. In addition, the viability, T/C is 3.55% under setting [18]; 2.22% under setting [19]; 1.86% under setting [20]; 3.02% under setting [21]; 3.25% (second compound 0.316 µM, first compound 0.316 µM); 3.07% (second compound 0.316 µM, first compound 1 µM). Moreover, the viability, T/C under setting [22] was 2.39%; the viability, T/C under setting [23] is 2.16%; the viability, T/C under setting [24] is 2.41%; the viability, T/C under setting [25] was 2.12%; the viability, T/C (second compound 1 µM, first compound 0.316 µM) was 1.61%; the viability, T/C (second compound 1 µM, first compound 1 µM) was 2.15%.

For the molecule `CCN1CCN(Cc2ccc(Nc3ncc(F)c(-c4cc(F)c5nc(C)n(C(C)C)c5c4)n3)nc2)CC1`, the viability, T/C (compound 0.00316 µM) was 106% and 104% and 96.7%; the viability, T/C (compound 0.01 µM) is 107% and 101% and 105%; the viability, T/C (compound 0.0316 µM) is 112% and 95.9% and 98.3%; the viability, T/C (compound 0.1 µM) is 103% and 110% and 106%; the viability, T/C (compound 0.316 µM) is 108% and 113% and 112%; the viability, T/C (compound 1 µM) was 120% and 116% and 119%. In addition, for the setting “curve of compound”, the 50% inhibitory concentration (IC50) was greater than 1000 nM.

On to `O=C(c1ccc(F)c(F)c1Nc1ccc(I)cc1F)N1CC(O)([C@@H]2CCCCN2)C1`, for which the viability, T/C is 94.1% and 97.7% and 117% (compound 0.00316 µM); 116% and 99.4% and 109% (compound 0.01 µM); 98.1% and 97.8% and 122% (compound 0.0316 µM); 116% and 111% and 136% (compound 0.1 µM); 132% and 119% and 145% (compound 0.316 µM); 126% and 119% and 145% (compound 1 µM). For the same molecule, where the note is “curve of compound”, the IC50 is greater than 1000 nM.

For the molecule `NC1CCC(NC2CC2c2ccccc2)CC1` (stereo unspecified) + Cc1c(S(C)(=O)=O)c(-c2cc(F)cc(N3CCN(c4ccc(NS(=O)(=O)c5ccc(NC(CCN6CCC(C(=O)OCCCP(=O)(O)O)CC6)CSc6ccccc6)c(S(=O)(=O)C(F)(F)F)c5)cc4)CC3)c2)c(-c2ccc(Cl)cc2)n1C(C)C, the IC50 is, setting by setting: under setting [3], greater than 100 nM; under setting [4], greater than 100 nM; under setting [5], greater than 100 nM; (curve of first compound, second compound 3.16 µM) greater than 100 nM; (curve of first compound, second compound 10 µM) greater than 100 nM. Also, the viability, T/C under setting [26] was 91.7%; the viability, T/C under setting [27] was 100%; the viability, T/C under setting [14] was 84.5%; the viability, T/C under setting [15] is 93.7%; the viability, T/C under setting [16] was 93.1%; the viability, T/C under setting [17] was 85.7%. The viability, T/C is 91.8% under setting [28]; 88.7% under setting [29]; 97% under setting [18]; 96.7% under setting [19]; 97.5% under setting [20]; 91.6% under setting [21]. Moreover, the viability, T/C is 89.1% under setting [30]; 88.7% under setting [31]; 89.8% under setting [22]; 85.1% under setting [23]; 87.5% under setting [24]; 80% under setting [25]. In addition, the viability, T/C reads like this: (second compound 3.16 µM, first compound 0.000316 µM) 79.4%; (second compound 3.16 µM, first compound 0.001 µM) 86.6%; (second compound 3.16 µM, first compound 0.00316 µM) 79.2%; (second compound 3.16 µM, first compound 0.01 µM) 75.9%; (second compound 3.16 µM, first compound 0.0316 µM) 78%; (second compound 3.16 µM, first compound 0.1 µM) 76%. The viability, T/C reads like this: (second compound 10 µM, first compound 0.000316 µM) 69.7%; (second compound 10 µM, first compound 0.001 µM) 73.5%; (second compound 10 µM, first compound 0.00316 µM) 69.3%; (second compound 10 µM, first compound 0.01 µM) 74%; (second compound 10 µM, first compound 0.0316 µM) 76.6%; (second compound 10 µM, first compound 0.1 µM) 71.1%.

Regarding `O=C(c1cc(Cc2n[nH]c(=O)c3ccccc23)ccc1F)N1CCN(C(=O)C2CC2)CC1`, the viability, T/C runs as follows: (compound 0.0316 µM) 94% and 96.9%; (compound 0.1 µM) 96.5% and 113%; (compound 0.316 µM) 101% and 94.4%; (compound 1 µM) 99.6% and 101%; (compound 3.16 µM) 96.3% and 102%; (compound 10 µM) 97.1% and 97.2%. Also, the 50% inhibitory concentration (IC50) (curve of compound) was greater than 10000 nM.

Regarding `Cn1ncnc1[C@H]1c2n[nH]c(=O)c3cc(F)cc(c23)N[C@@H]1c1ccc(F)cc1` + CNC(C)C(=O)NC1CN(S(=O)(=O)c2cccc(S(=O)(=O)N3CCC4CCC(C(=O)NC(c5ccccc5)c5ccccc5)N4C(=O)C(NC(=O)C(C)NC)C3)c2)CCC2CCC(C(=O)NC(c3ccccc3)c3ccccc3)N2C1=O, the IC50 was less than 0.316 nM under setting [1]; less than 0.316 nM under setting [2]; less than 0.316 nM under setting [3]; less than 0.316 nM under setting [4]; less than 0.316 nM under setting [5]. For the same molecule, the viability, T/C was 5.99% (second compound 0.01 µM, first compound 0.000316 µM); 6.41% (second compound 0.01 µM, first compound 0.001 µM); 5.39% under setting [6]; 5.55% under setting [7]; 9.54% under setting [8]; 6.44% under setting [9]. Moreover, the viability, T/C runs as follows: (second compound 0.0316 µM, first compound 0.000316 µM) 7.02%; (second compound 0.0316 µM, first compound 0.001 µM) 6.75%; under setting [10], 5.6%; under setting [11], 4.53%; under setting [12], 3.1%; under setting [13], 4.55%. Also, the viability, T/C was 4.37% under setting [26]; 3.32% under setting [27]; 4.82% under setting [14]; 3.9% under setting [15]; 2.51% under setting [16]; 3.65% under setting [17]. For the same molecule, the viability, T/C was 3.1% under setting [28]; 3.37% under setting [29]; 3.42% under setting [18]; 3.57% under setting [19]; 2.58% under setting [20]; 4.61% under setting [21]. For the same molecule, the viability, T/C by setting is: under setting [30], 2.27%; under setting [31], 4.58%; under setting [22], 3.37%; under setting [23], 3%; under setting [24], 3.76%; under setting [25], 5.53%.
